The values below come from patent publication US20250361230A1, “LATS Inhibitors and Uses Thereof” (The USA, as Represented by the Secretary, Dept. of Heath …, priority 2022, published 2025).

pIC50: −log10 of the molar value.

The target in this assay is T1, LATS1 Kinase-NanoLuc fusion in HEK-293 cells (Homo sapiens, UniProt O95835).
T1 construct: host or cells: HEK-293
T1 sequence (O95835 1-1130): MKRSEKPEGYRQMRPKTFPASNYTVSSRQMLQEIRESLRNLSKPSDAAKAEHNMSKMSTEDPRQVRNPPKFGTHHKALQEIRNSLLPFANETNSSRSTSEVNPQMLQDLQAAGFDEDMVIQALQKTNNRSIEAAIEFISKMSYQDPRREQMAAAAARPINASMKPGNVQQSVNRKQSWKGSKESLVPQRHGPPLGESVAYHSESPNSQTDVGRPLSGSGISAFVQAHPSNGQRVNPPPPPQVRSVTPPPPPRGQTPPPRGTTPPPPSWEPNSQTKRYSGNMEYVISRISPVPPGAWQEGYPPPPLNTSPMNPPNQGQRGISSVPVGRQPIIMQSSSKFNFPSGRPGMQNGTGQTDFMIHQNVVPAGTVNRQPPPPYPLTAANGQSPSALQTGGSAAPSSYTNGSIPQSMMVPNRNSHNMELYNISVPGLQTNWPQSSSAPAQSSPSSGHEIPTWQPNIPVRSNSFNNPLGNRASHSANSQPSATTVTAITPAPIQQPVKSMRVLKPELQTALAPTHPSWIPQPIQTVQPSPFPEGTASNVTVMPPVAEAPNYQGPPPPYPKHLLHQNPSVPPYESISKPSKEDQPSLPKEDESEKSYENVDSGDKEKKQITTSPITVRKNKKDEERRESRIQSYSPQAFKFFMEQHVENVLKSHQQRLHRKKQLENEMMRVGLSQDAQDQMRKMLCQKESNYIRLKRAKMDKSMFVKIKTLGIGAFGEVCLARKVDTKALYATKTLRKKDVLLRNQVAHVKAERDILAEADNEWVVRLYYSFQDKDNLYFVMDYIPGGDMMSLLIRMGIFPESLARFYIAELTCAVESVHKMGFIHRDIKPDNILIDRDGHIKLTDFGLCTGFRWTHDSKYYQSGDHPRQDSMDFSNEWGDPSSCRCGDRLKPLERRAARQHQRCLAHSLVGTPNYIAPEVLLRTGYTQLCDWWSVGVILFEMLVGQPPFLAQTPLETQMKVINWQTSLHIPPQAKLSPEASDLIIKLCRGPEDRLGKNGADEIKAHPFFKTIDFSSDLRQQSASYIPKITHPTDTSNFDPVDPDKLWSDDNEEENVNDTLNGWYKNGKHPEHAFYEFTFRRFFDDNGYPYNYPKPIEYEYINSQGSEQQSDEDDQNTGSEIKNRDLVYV
The experiment in a line: NanoBRET target engagement assay in transfected HEK-293 cells, LATS1. Type of assay: cell-based. The conditions noted are these: Table 28, NanoBRET, HEK-293 cells; read-out: LATS1 (Cellular) IC50. An excerpt:
The NanoBRET™ assay measures kinase engagement in real time in the context of the intact cell. The assay uses a Kinase-NanoLuc® fusion vector expressing a kinase protein to which a luciferase tag has been added, a cell-permeant fluorescent NanoBRET™ tracer, a NanoLuc® substrate, and an extracellular NanoLuc® inhibitor. Upon expression of the luciferase-tagged kinase, cells will produce a strong BRET signal only in the presence of the NanoBRET™ tracer. The extracellular NanoLuc® inhibitor ensures that the BRET signal observed emanates only from live cells. Because the BRET signal has tight distance constraints, addition of the test compound will decrease the BRET signal if the compound competes with the NanoBRET™ tracer for binding to the kinase domain. Under the appropriate tracer conditions established by the manufacturer, quantitative intracellular affinity and relative potency can then be determined using Mass Action model equations.
HEK-293 cells were purchased from ATCC. FuGENEHD Transfection Reagent, Kinase-NanoLuc® fusion plasmids, Transfection Carrier DNA, NanoBRET™ Tracers and dilution buffer, NanoBRET™ Nano-Glo Substrate, Extracellular NanoLuc® Inhibitor were obtained from Promega.
Assays were conducted following Promega assay protocol with some modifications as described further below. HEK-293 Cells were transiently transfected with Kinase-NanoLuc® Fusion Vector DNA by FuGENE HD Transfection Reagent. Test compounds were delivered into 384 well assay plate by Echo 550 (Labcyte Inc, Sunnyvale, CA). Transfected cells were harvested and mixed with NanoBRET™ Tracer Reagent and dispensed into 384 well plates and incubated at 37° C. in 5% CO2 cell culture incubator for 1 hour. The NanoBRET™ Nano-Glo Substrate plus Extracellular NanoLuc® Inhibitor Solution were added into the wells of the assay plate and incubated for 2-3 minutes at room temperature. The donor emission wavelength (460 nm) and acceptor emission wavelength (600 nm) were measured in the EnVision plate reader. The BRET Ratios were calculated. BRET Ratio=[(Acceptor sample÷Donor sample)−(Acceptor no-tracer control÷Donor no-tracer control)]. The IC50 values of compounds were calculated with Prism GraphPad program.
• 1. Transient Transfection of HEK-293 Cells NanoLuc® Fusion Vector DNA • 1). Cultivate HEK-293 cells (70-80% confluence) appropriately prior to assay. Trypsinize and collect HEK-293 cells. • 2). Prepare lipid: DNA complexes as follows: • a. Prepare a […] solution of DNA in Opti-MEM™ without serum that consists of the following ratios of carrier DNA and DNA encoding NanoLuc® fusion. 9.0 µg/mL of Transfection Carrier DNA, […] of NanoLuc® fusion vector DNA and 1 mL of Opti-MEM™ without phenol red. Mix thoroughly. • b. Add 30 μl of FuGENE HD Transfection Reagent into each milliliter of DNA mixture to form lipid: DNA complex. • c. Mix by inversion 10 times. • d. Incubate at ambient temperature for 20 minutes to allow complexes to form. • 3). In a sterile, conical tube, mix 1 part of lipid: DNA complex with 20 parts of HEK-293 cells in suspension. Mix gently by inversion 5 times. • 4). Dispense cells+lipid: DNA complex into a sterile tissue culture dish and incubate for 22-24 hours. • 2. Addition of Test Compounds (dry plate shooting): Each test compound is delivered from the compound source plate to the wells of 384-well white NBS plate by Echo 550. • 3. Preparation of Cells with NanoBRET™ Tracer Reagent • 1). Remove medium from dish with transfected HEK-293 cells via aspiration, trypsinize and allow cells to dissociate from the dish. • 2). Neutralize trypsin using medium containing serum and centrifuge at 200× g for 5 minutes to pellet the cells. Adjust the cell density to 2×10^5 cells/mL in Opti-MEM™ without phenol red. • 3). Prepare Complete 20× NanoBRET™ Tracer Reagent with Tracer Dilution Buffer. • 4). Dispense one part of Complete 20× NanoBRET™ Tracer Reagent to 20 parts of cells in the tube. Mix gently by inversion 10 times. • 5). […]

As usually defined, the pIC50 is the IC50 on a negative log10 scale, so that one unit is a factor of ten. Take `Cc1cc(-c2ccnc3[nH]cc(F)c23)ncc1[C@@]1(O)[C@H](C)CN(C2CCS(=O)(=O)CC2)C[C@@H]1C` [Compound 51, 4-((3R,4s,5S)-4-(6-(3-fluoro-1H-pyrrolo[2,3-b]pyridin-4-yl)-4-methylpyridin-3-yl)-4-hydroxy-3,5-dimethylpiperidin-1-yl)tetrahydro-2H-thiopyran 1,1-dioxide]: the pIC50 is less than 4.52. Under `Cc1cc(-c2ccnc3[nH]cc(F)c23)ccc1[C@@]1(O)[C@H](C)CN(C2CCC2)C[C@@H]1C` [Compound 54, (3R,4s,5S)-1-cyclobutyl-4-(4-(3-fluoro-1H-pyrrolo[2,3-b]pyridin-4-yl)-2-methylphenyl)-3,5-dimethylpiperidin-4-ol] stands 7.06; under `Cc1cc(-c2ccnc3[nH]cc(F)c23)ccc1[C@@]1(O)[C@H](C)CN(C2CCS(=O)(=O)CC2)C[C@@H]1C` [Compound 55, 4-((3R,4s, 5S)-4-(4-(3-fluoro-1H-pyrrolo[2,3-b]pyridin-4-yl)-2-methylphenyl)-4-hydroxy-3,5S-dimethylpiperidin-1-yl)tetrahydro-2H-thiopyran 1,1-dioxide], 6.44.

Turning to `Cc1cc(-c2ccnc3[nH]cc(F)c23)cc(F)c1[C@@]1(O)[C@H](C)CN(C2CCS(=O)(=O)CC2)C[C@@H]1C` [Compound 57, 4-((3R,4s,5S)-4-(2-fluoro-4-(3-fluoro-1H-pyrrolo[2,3-b]pyridin-4-yl)-6-methylphenyl)-4-hydroxy-3,5-dimethylpiperidin-1-yl)tetrahydro-2H-thiopyran 1,1-dioxide], the pIC50 was 7.43. As to `C[C@@H]1CN(C(=O)CN)C[C@H](C)[C@@]1(O)c1c(F)cc(-c2ccnc3[nH]cc(F)c23)cc1F` [Compound 58], the pIC50 was 6.83. Then `Cc1cc(-c2ccnc3[nH]cc(F)c23)ccc1[C@@]1(O)[C@H](C)CN(C(=O)CN)C[C@@H]1C` [Compound 60, 2-amino-1-((3R,4s,5S)-4-(4-(3-fluoro-1H-pyrrolo[2,3-b]pyridin-4-yl)-2-methylphenyl)-4-hydroxy-3,5-dimethylpiperidin-1-yl)ethan-1-one], with 7.67. Under `Cc1cc(-c2ccnc3[nH]cc(F)c23)cc(F)c1[C@@]1(O)[C@H](C)CN(C(=O)CN)C[C@@H]1C` [Compound 61, 2-amino-1-((3R,4s,5S)-4-(2-fluoro-4-(3-fluoro-1H-pyrrolo[2,3-b]pyridin-4-yl)-6-methylphenyl)-4-hydroxy-3,5-dimethylpiperidin-1-yl)ethan-1-one] stands 8.40; under `C[C@@H]1CN(CC(N)=O)C[C@H](C)[C@@]1(O)c1c(F)cc(-c2ccnc3[nH]cc(F)c23)cc1F` [Compound 88, 2-((3R,4s,5S)-4-(2,6-difluoro-4-(3-fluoro-1H-pyrrolo[2,3-b]pyridin-4-yl)phenyl)-4-hydroxy-3,5-dimethylpiperidin-1-yl)acetamide], 6.69; under `C[C@@H]1CN(C2CCNCC2)C[C@H](C)[C@@]1(O)c1c(F)cc(-c2ccnc3[nH]cc(F)c23)cc1F` [Compound 90, (3R,4s,5S)-4-(2,6-difluoro-4-(3-fluoro-1H-pyrrolo[2,3-b]pyridin-4-yl)phenyl)-3,5-dimethyl-[1,4′-bipiperidin]-4-ol], 6.47. Under `OC1(c2ccc(-c3ccnc4[nH]cc(F)c34)cc2)CCNCC1` [Compound 110, 4-(4-(3-fluoro-1H-pyrrolo[2,3-b]pyridin-4-yl)phenyl)piperidin-4-ol] stands 4.75. Take `OC1(c2ccc(-c3ccnc4[nH]ccc34)cc2)CCNCC1` [Compound 111, 4-(4-(1H-pyrrolo[2,3-b]pyridin-4-yl)phenyl)piperidin-4-ol]: the pIC50 is less than 4.30.

As to `Cc1cc(-c2ccnc3[nH]cc(F)c23)cc(F)c1C1(O)CC2(CN(C3COC3)C2)C1` [Compound 139, 6-(2-fluoro-4-(3-fluoro-1H-pyrrolo[2,3-b]pyridin-4-yl)-6-methylphenyl)-2-(oxetan-3-yl)-2-azaspiro[3.3]heptan-6-ol], the pIC50 is 7.24.

`O=C([C@H]1CCCN1)N1CCC(O)(c2ccc(-c3ccnc4[nH]cc(F)c34)cc2)CC1` [Compound 142]: the pIC50 is 5.74. For `Fc1c[nH]c2nccc(-c3ccc(C4CCNCC4)cc3)c12` [Compound 169, 3-fluoro-4-(4-(piperidin-4-yl)phenyl)-1H-pyrrolo[2,3-b]pyridine], the pIC50 was 4.59.

`Fc1c[nH]c2nccc(-c3ccc(C4CCNCC4)c(Cl)c3)c12` [Compound 172, 4-(3-chloro-4-(piperidin-4-yl)phenyl)-3-fluoro-1H-pyrrolo[2,3-b]pyridine]: the pIC50 is less than 4.30. Under `Clc1c[nH]c2nccc(-c3ccc(C4CCNCC4)cc3)c12` [Compound 173, 3-chloro-4-(4-(piperidin-4-yl)phenyl)-1H-pyrrolo[2,3-b]pyridine] stands 5.92. Then `Cc1cc(-c2ccnc3[nH]ccc23)ccc1C1CCNCC1` [Compound 177, 4-(3-methyl-4-(piperidin-4-yl)phenyl)-1H-pyrrolo[2,3-b]pyridine], with 4.32; and `c1cc(-c2ccc(C3CC4CCC(C3)N4)cc2)c2cc[nH]c2n1` (centres unmarked) [Compound 184, 4-(4-(8-azabicyclo[3.2.1]octan-3-yl)phenyl)-1H-pyrrolo[2,3-b]pyridine], with 4.24. Under `CC1CC(c2ccc(-c3ccnc4[nH]ccc34)cc2)CC(C)N1` (centres unmarked) [Compound 187, 4-(4-(2,6-dimethylpiperidin-4-yl)phenyl)-1H-pyrrolo[2,3-b]pyridine] stands less than 4.30.

With `CC1(c2ccc(-c3ccnc4[nH]ccc34)cc2)CCNCC1` [Compound 201, 4-(4-(4-methylpiperidin-4-yl)phenyl)-1H-pyrrolo[2,3-b]pyridine], the pIC50 was less than 4.30.
